# Biological target: T1, CFTR (Homo sapiens, UniProt P13569, DEL508-508)
# T1 construct: Primary CF airway epithelial cells were obtained from the UNC Cystic Fibrosis Tissue Procurement and Cell Culture Core; host or cells: primary CF airway epithelial cells
# Assay: Equivalent current assay in Primary CF airway epithelial cells (NAUC)
# Assay type: cell-based
# Conditions: 24 h, normalized to VX809 (3 μM) positive control; for Nauc @ 3 μM: 3 μM test compound; for Nauc @ 10 μM: 10 μM test compound
# Summary of the method: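 NAUC is the area under the curve from forskolin (10 μM) plus VX770 (1 μM) addition to CFTR-172 (20 μM) block, after benzamil (5 μM). It is corrected for vehicle and scaled to 3 μM VX809 as 1.0 and DMSO as 0.0. Cells were exposed for 24 h to compounds with VX809; medians of ≥4 replicates were fitted sigmoidally.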
# T1 sequence (P13569 with tags, fused parts or gaps DEL508-508): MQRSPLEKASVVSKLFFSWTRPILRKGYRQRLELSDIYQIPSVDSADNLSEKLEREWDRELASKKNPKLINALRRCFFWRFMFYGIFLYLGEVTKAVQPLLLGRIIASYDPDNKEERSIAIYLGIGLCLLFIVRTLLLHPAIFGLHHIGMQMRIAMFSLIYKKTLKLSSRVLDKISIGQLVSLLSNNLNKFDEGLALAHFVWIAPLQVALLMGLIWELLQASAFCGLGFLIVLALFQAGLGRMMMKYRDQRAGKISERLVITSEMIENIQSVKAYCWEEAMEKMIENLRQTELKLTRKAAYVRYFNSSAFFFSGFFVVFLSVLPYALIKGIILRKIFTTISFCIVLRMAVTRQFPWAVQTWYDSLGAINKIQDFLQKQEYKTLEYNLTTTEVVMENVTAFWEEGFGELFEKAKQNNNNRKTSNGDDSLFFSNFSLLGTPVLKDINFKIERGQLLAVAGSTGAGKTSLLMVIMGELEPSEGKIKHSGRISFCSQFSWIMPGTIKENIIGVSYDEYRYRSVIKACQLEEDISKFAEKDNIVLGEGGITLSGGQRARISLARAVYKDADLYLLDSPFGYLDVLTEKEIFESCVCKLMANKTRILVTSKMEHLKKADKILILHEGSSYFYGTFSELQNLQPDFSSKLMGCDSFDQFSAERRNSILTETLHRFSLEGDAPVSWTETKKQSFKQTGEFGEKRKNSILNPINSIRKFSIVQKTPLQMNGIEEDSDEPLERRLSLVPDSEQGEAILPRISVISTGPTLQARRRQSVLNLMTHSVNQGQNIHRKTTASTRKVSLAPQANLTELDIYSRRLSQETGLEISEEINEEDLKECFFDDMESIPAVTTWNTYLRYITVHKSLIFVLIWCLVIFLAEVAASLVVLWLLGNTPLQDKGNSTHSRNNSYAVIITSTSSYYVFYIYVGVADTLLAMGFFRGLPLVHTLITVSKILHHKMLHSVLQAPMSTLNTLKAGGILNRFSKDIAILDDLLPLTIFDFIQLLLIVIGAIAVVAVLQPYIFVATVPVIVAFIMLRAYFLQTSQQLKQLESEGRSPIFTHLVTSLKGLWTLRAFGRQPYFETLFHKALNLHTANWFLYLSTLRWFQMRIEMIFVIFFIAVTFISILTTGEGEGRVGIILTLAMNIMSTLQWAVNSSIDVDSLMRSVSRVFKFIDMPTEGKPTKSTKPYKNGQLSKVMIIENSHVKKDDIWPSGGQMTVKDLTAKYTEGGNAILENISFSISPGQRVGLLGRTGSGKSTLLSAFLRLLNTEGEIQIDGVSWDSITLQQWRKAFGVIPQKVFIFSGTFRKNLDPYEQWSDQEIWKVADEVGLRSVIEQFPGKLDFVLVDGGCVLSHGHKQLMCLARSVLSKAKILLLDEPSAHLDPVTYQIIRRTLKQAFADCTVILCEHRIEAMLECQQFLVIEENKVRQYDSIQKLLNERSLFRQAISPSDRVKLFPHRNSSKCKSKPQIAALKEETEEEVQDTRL
Compound,Nauc @ 3 μM,Nauc @ 10 μM
O=C1C2C3CCCN3C3(C(=O)Nc4c(Cl)cc(Cl)cc43)C2C(=O)N1c1cc(C(F)(F)F)cc(C(F)(F)F)c1 (centres unmarked) [Example 25],+++ (NAUC “+++” refers to an observed NAUC >170% of positive control),+++ (NAUC “+++” refers to an observed NAUC >170% of positive control)
O=C1C2C3CCCN3C3(C(=O)Nc4c(Cl)cc(Cl)cc43)C2C(=O)N1c1cc(C(F)(F)F)cc(C(F)(F)F)c1 (centres unmarked) [Example 26],+ (NAUC “+” refers to an observed NAUC <140% of positive control),+++ (NAUC “+++” refers to an observed NAUC >170% of positive control)
O=C1C2C3CCCN3C3(C(=O)Nc4c(Cl)cc(Cl)cc43)C2C(=O)N1c1cc(Br)cc(Br)c1 (centres unmarked) [Example 27],++ (NAUC “++” refers to an observed NAUC 170-140% of positive control),++ (NAUC “++” refers to an observed NAUC 170-140% of positive control)
O=C1C2C3CCCN3C3(C(=O)Nc4c(Cl)cc(Cl)cc43)C2C(=O)N1c1cc(F)cc(Cl)c1 (centres unmarked) [Example 28],++ (NAUC “++” refers to an observed NAUC 170-140% of positive control),+++ (NAUC “+++” refers to an observed NAUC >170% of positive control)
O=C1C2C3CCCN3C3(C(=O)Nc4ccc(C(F)(F)F)cc43)C2C(=O)N1c1cc(Cl)cc(Cl)c1 (centres unmarked) [Example 30],++ (NAUC “++” refers to an observed NAUC 170-140% of positive control),+++ (NAUC “+++” refers to an observed NAUC >170% of positive control)
N#Cc1cc(Cl)cc(N2C(=O)C3C4CCCN4C4(C(=O)Nc5c(Cl)cc(Cl)cc54)C3C2=O)c1 (centres unmarked) [Example 31],+ (NAUC “+” refers to an observed NAUC <140% of positive control),+++ (NAUC “+++” refers to an observed NAUC >170% of positive control)
O=C1C2CN(C3CCCC3)C3(C(=O)Nc4c(Cl)cc(Cl)cc43)C2C(=O)N1c1cc(Cl)cc(Cl)c1 (centres unmarked) [Example 32],++ (NAUC “++” refers to an observed NAUC 170-140% of positive control),+++ (NAUC “+++” refers to an observed NAUC >170% of positive control)
O=C1C2C3CCCN3C3(C(=O)Nc4c(Cl)cc(Cl)cc43)C2C(=O)N1c1cc(Cl)nc(Cl)c1 (centres unmarked) [Example 33],++ (NAUC “++” refers to an observed NAUC 170-140% of positive control),+++ (NAUC “+++” refers to an observed NAUC >170% of positive control)
O=C1C2C3CCCN3C3(C(=O)Nc4c(Br)cc(Br)cc43)C2C(=O)N1c1cc(Cl)cc(Cl)c1 (centres unmarked) [Example 34],+++ (NAUC “+++” refers to an observed NAUC >170% of positive control),+++ (NAUC “+++” refers to an observed NAUC >170% of positive control)
O=C1C2C3CCCN3C3(C(=O)Nc4c(Cl)cc(Cl)cc43)C2C(=O)N1c1cc(Cl)cc(Br)c1 (centres unmarked) [Example 35],+ (NAUC “+” refers to an observed NAUC <140% of positive control),+++ (NAUC “+++” refers to an observed NAUC >170% of positive control)
O=C1C2C3CCCN3C3(C(=O)Nc4c(Cl)cc(F)cc43)C2C(=O)N1c1cc(F)cc(Cl)c1 (centres unmarked) [Example 36],+ (NAUC “+” refers to an observed NAUC <140% of positive control),+++ (NAUC “+++” refers to an observed NAUC >170% of positive control)
O=C1C2C3CCCN3C3(C(=O)Nc4c(F)cc(Cl)cc43)C2C(=O)N1c1cc(F)cc(Cl)c1 (centres unmarked) [Example 37],+ (NAUC “+” refers to an observed NAUC <140% of positive control),++ (NAUC “++” refers to an observed NAUC 170-140% of positive control)
CC12C(=O)N(c3cc(Cl)cc(Cl)c3)C(=O)C1(C)C1(C(=O)Nc3c(Cl)cc(Cl)cc31)N1CCCC12 (centres unmarked) [Example 39],+ (NAUC “+” refers to an observed NAUC <140% of positive control),++ (NAUC “++” refers to an observed NAUC 170-140% of positive control)
O=C1C2C3C[C@H](O)CN3C3(C(=O)Nc4c(Br)cc(Br)cc43)C2C(=O)N1c1cc(Cl)cc(Cl)c1 (some centres unmarked) [Example 40],+++ (NAUC “+++” refers to an observed NAUC >170% of positive control),+++ (NAUC “+++” refers to an observed NAUC >170% of positive control)
O=C1C2C3C[C@H](O)CN3C3(C(=O)Nc4c(Cl)cc(Cl)cc43)C2C(=O)N1c1cc(Cl)cc(Br)c1 (some centres unmarked) [Example 41],++ (NAUC “++” refers to an observed NAUC 170-140% of positive control),+++ (NAUC “+++” refers to an observed NAUC >170% of positive control)
O=C1C2C3C[C@H](O)CN3C3(C(=O)Nc4ccc(C(F)(F)F)cc43)C2C(=O)N1c1cc(Cl)cc(Cl)c1 (some centres unmarked) [Example 42],++ (NAUC “++” refers to an observed NAUC 170-140% of positive control),++ (NAUC “++” refers to an observed NAUC 170-140% of positive control)
O=C1C2C3C[C@H](O)CN3C3(C(=O)Nc4c(Cl)cc(Cl)cc43)C2C(=O)N1c1cc(C(F)(F)F)cc(C(F)(F)F)c1 (some centres unmarked) [Example 43],++ (NAUC “++” refers to an observed NAUC 170-140% of positive control),+++ (NAUC “+++” refers to an observed NAUC >170% of positive control)
CC12C(=O)N(c3cc(Cl)cc(Cl)c3)C(=O)C1C1(C(=O)Nc3c(Cl)cc(Cl)cc31)N1CCCC12 (centres unmarked) [Example 44],++ (NAUC “++” refers to an observed NAUC 170-140% of positive control),+ (NAUC “+” refers to an observed NAUC <140% of positive control)
O=C1C2C3C[C@H](O)CN3C3(C(=O)Nc4c(Cl)cc(Cl)cc43)C2C(=O)N1c1cc(Br)cc(Br)c1 (some centres unmarked) [Example 45],+ (NAUC “+” refers to an observed NAUC <140% of positive control),+++ (NAUC “+++” refers to an observed NAUC >170% of positive control)
Cc1ccc2c(c1)C1(C(=O)N2)C2C(=O)N(c3cc(Cl)cc(Cl)c3)C(=O)C2C2CCCN21 (centres unmarked) [Example 47],++ (NAUC “++” refers to an observed NAUC 170-140% of positive control),++ (NAUC “++” refers to an observed NAUC 170-140% of positive control)
O=C1C2C3CCCN3C3(C(=O)Nc4c(Cl)cc(Cl)cc43)C2C(=O)N1CCCBr (centres unmarked) [Example 48],++ (NAUC “++” refers to an observed NAUC 170-140% of positive control),+ (NAUC “+” refers to an observed NAUC <140% of positive control)
O=C1C2C3C[C@H](F)CN3C3(C(=O)Nc4c(Cl)cc(Cl)cc43)C2C(=O)N1c1cc(Cl)cc(Cl)c1 (some centres unmarked) [Example 49],++ (NAUC “++” refers to an observed NAUC 170-140% of positive control),+++ (NAUC “+++” refers to an observed NAUC >170% of positive control)

# Source: US10072017B2, “Compounds and methods for the treatment of cystic fibrosis” (Flatley Discovery Lab, LLC, priority 2015, dated 2018)
